Data as given in US20120252765A1, “USE OF […] THE PREPARATION OF A MEDICAMENT FOR THE PREVENTION OF HOSPI[…] HEART FAILURE” (SANOFI, priority 2009, published 2012).

Tested on: patients with atrial fibrillation
Assay: partial factorial, double-blind, randomized, multi-center, placebo-controlled trial of irbesartan for prevention of vascular events
Format: in vivo, human
Excerpt: Efficacy of irbesartan and its pharmaceutically acceptable salts versus placebo in patients with atrial fibrillation for the prevention of vascular events was provided via irbesartan during a partial factorial, double-blind, randomized, multi-center, placebo-controlled group trial.
To be eligible for the trial, patients had to have all of the following: an evidence of atrial fibrillation, an evidence of high risk of vascular events, and a systolic blood pressure of at least 110 mm Hg.
The evidence of atrial fibrillation is defined as follows: patient must have either permanent, paroxysmal or persistent atrial fibrillation. Patients in atrial fibrillation at baseline (unless cardiovascular surgery was performed in the previous month) had ECG documented atrial fibrillation at the time of enrollment. Patients not in atrial fibrillation at baseline (i.e. during screening period, between the screening visit and the day of randomization) had ECG documented atrial fibrillation on two separate occasions, at least 2 weeks apart in the six months prior to randomization (and not within one month of cardiovascular surgery).
The evidence of high risk of vascular events is defined as follows: at least one of the following risk criteria must be present:
Patients have been enrolled for over 4 years. Study drug treatment units (placebo or irbesartan) were such that each patient took two tablets of either placebo or 150 mg irbesartan form A, once daily, at night. After an up-titration period of 2 weeks, all patients were up-titrated to 300 mg. They took two tablets of either placebo or 150 mg irbesartan form A, once daily, at night.
Results were calculated using non-parametric Kaplan-Meier estimate.
Cox's proportional hazard model was used to estimate the hazard ratio also called relative risk.
Relative risk (RR) is the ratio between the risk of having a hospitalization for heart failure for patients treated with irbesartan and the risk of having a hospitalization for heart failure for patients treated with placebo.
The percentage of decrease of an event is calculated as follow: […]

## CCCCC1=NC2(CCCC2)C(=O)N1Cc1ccc(-c2ccccc2-c2nnn[nH]2)cc1 [irbesartan, 2-n-butyl-4-spirocyclopentane-1-[(2′-(tetrazol-5-yl)biphenyl-4-yl)methyl]-2-imidazolin-5-one]
4518 patients on irbesartan form A up-titrated to 300 mg once daily, Kaplan-Meier estimate, placebo 3.2% per year
  risk of heart failure hospitalization: 2.7 % per year
Irbesartan group, placebo 4059, p=0.004
  number of stays in hospital: 3817
Irbesartan group, placebo 39941, p=0.0001
  days hospitalized for cardiovascular reasons: 36480 days
Irbesartan versus placebo
  decrease of days hospitalized for cardiovascular reasons: 8.7%
Irbesartan versus placebo, Cox's proportional hazard model, confidence interval 0.76-0.98, p=0.018
  relative risk (hazard ratio) of hospitalization for heart failure: 0.86
Irbesartan versus placebo, p=0.018
  reduction in the risk of heart failure hospitalization (1-RR): 14%
Number of events in the irbesartan group (4518 patients), placebo 551
  hospitalization for heart failure events: 482
Post hoc analysis, irbesartan versus placebo, p=0.02
  reduction in the risk of the composite of stroke, non-CVS embolism and transient ischemic attacks: 13%
Post hoc analysis, placebo 3.4% per year
  risk of the composite of stroke, non-CVS embolism and transient ischemic attacks: 2.9 % per year
